Measured values taken from article PMC6300691, “Enhancement of Heat Stability and Kinetic Parameters of the Maize Endosperm ADP-Glucose Pyrophosphorylase by Mutagenesis of Amino Acids in the Small Subunit With High B Factors” (Frontiers in Plant Science, 2018).

Assays:
Assay type in all cases: biochemical
K403R = K403R (Zea mays, UniProt P55241+Q947C0, K403R); test: Activation constant from initial rates with varied 3-PGA (0-1 mM) at 2 mM ATP and 2 mM G-1-P, pH 7.4, 15 mM MgCl2, fitted to V = Vmin + Vmax*X/(Ka + X).; design: BT2 variant with wild type SH2, E. coli, purified
Chain of K403R (Q947C0 1-475 K403R): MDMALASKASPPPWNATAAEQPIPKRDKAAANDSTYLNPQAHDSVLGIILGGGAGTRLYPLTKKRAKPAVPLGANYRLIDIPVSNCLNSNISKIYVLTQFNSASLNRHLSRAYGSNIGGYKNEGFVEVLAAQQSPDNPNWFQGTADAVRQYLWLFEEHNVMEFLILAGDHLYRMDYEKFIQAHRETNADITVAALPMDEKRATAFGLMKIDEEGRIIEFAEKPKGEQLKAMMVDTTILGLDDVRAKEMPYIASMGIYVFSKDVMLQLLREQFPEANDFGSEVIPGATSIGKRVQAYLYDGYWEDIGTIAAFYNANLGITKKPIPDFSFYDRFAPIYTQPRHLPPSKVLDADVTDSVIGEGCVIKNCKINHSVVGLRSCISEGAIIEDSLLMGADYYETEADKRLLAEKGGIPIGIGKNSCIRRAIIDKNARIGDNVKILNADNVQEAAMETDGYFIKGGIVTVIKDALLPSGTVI
Chain of K403R (P55241 46-516): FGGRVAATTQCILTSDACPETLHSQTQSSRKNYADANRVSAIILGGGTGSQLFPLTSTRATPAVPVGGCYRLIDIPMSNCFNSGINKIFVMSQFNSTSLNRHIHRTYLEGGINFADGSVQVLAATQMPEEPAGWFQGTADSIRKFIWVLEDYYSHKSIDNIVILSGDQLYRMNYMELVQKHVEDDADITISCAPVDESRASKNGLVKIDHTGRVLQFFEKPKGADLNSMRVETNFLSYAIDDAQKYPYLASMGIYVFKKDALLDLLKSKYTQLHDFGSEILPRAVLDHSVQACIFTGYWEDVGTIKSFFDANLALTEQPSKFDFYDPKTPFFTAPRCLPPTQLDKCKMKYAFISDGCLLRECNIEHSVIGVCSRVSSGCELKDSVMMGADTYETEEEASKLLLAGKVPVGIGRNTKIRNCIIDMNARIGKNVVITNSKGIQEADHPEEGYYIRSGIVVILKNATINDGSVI
From the text: All reactions were developed as above.

E123Q = biological target: T1, E123Q (Zea mays, UniProt P55241+Q947C0, E123Q); test: Initial-rate assay (PPi formation coupled to NADH oxidation) with varied ATP (0.05-3.0 mM) at 2.0 mM G-1-P, 2.5 mM 3-PGA, 15 mM MgCl2, 50 mM HEPES pH 7.4, hyperbolic fit.; conditions: read-out: KM ATP
T1 construct: BT2 variant with wild type SH2, E. coli, purified
T1 sequence (Q947C0 1-475 E123Q): as the sequence (Q947C0 1-475 K403R) above, with E123Q, R403K counted along it
T1 sequence (P55241 46-516): as the sequence (P55241 46-516) above
From the text: (§1) All saturation plots were hyperbolic. No cooperative effects were seen.

D242H = biological target: T2, D242H (Zea mays, UniProt P55241+Q947C0, D242H); test: as above; conditions: read-out: KM ATP
T2 construct: BT2 variant with wild type SH2, E. coli, purified
T2 sequence (Q947C0 1-475 D242H): as the sequence (Q947C0 1-475 K403R) above, with D242H, R403K counted along it
T2 sequence (P55241 46-516): as the sequence (P55241 46-516) above
From the text: as §1

E123G, R331K, L404H = biological target: T3, E123G, R331K, L404H (Zea mays, UniProt P55241+Q947C0, E123G/R331K/L404H); test: as above; conditions: read-out: KM ATP
T3 construct: BT2 variant with wild type SH2, E. coli, purified
T3 sequence (Q947C0 1-475 E123G/R331K/L404H): as the sequence (Q947C0 1-475 K403R) above, with E123G, R331K, R403K, L404H counted along it
T3 sequence (P55241 46-516, stated change not applied): as the sequence (P55241 46-516) above
From the text: as §1

R331K = biological target: T4, R331K (Zea mays, UniProt P55241+Q947C0, R331K); test: as above; conditions: read-out: KM ATP
T4 construct: BT2 variant with wild type SH2, E. coli, purified
T4 sequence (Q947C0 1-475 R331K): as the sequence (Q947C0 1-475 K403R) above, with R331K, R403K counted along it
T4 sequence (P55241 46-516): as the sequence (P55241 46-516) above
From the text: as §1

L404E = biological target: T5, L404E (Zea mays, UniProt P55241+Q947C0, L404E); test: as above; conditions: read-out: KM ATP
T5 construct: BT2 variant with wild type SH2, E. coli, purified
T5 sequence (Q947C0 1-475 L404E): as the sequence (Q947C0 1-475 K403R) above, with R403K, L404E counted along it
T5 sequence (P55241 46-516, stated change not applied): as the sequence (P55241 46-516) above
From the text: as §1

L404K = biological target: T6, L404K (Zea mays, UniProt P55241+Q947C0, L404K); test: as above; conditions: read-out: KM ATP
T6 construct: BT2 variant with wild type SH2, E. coli, purified
T6 sequence (Q947C0 1-475 L404K): as the sequence (Q947C0 1-475 K403R) above, with R403K, L404K counted along it
T6 sequence (P55241 46-516, stated change not applied): as the sequence (P55241 46-516) above
From the text: as §1

R331P = biological target: T7, R331P (Zea mays, UniProt P55241+Q947C0, R331P); test: as above; conditions: read-out: KM ATP
T7 construct: BT2 variant with wild type SH2, E. coli, purified
T7 sequence (Q947C0 1-475 R331P): as the sequence (Q947C0 1-475 K403R) above, with R331P, R403K counted along it
T7 sequence (P55241 46-516): as the sequence (P55241 46-516) above
From the text: as §1

K403L = biological target: T8, K403L (Zea mays, UniProt P55241+Q947C0, K403L); test: as above; conditions: read-out: KM ATP
T8 construct: BT2 variant with wild type SH2, E. coli, purified
T8 sequence (Q947C0 1-475 K403L): as the sequence (Q947C0 1-475 K403R) above, with R403L counted along it
T8 sequence (P55241 46-516): as the sequence (P55241 46-516) above
From the text: as §1

[1] = biological target: T9, E123G, R331K, K402R, L404H (Zea mays, UniProt P55241+Q947C0, E123G/R331K/K402R/L404H); test: as above; conditions: read-out: KM ATP
T9 construct: BT2 quadruple variant with wild type SH2, E. coli, purified
T9 sequence (Q947C0 1-475 E123G/R331K/K402R/L404H): as the sequence (Q947C0 1-475 K403R) above, with E123G, R331K, K402R, R403K, L404H counted along it
T9 sequence (P55241 46-516, stated change not applied): as the sequence (P55241 46-516) above
From the text: as §1

Row | SMILES | 3-PGA Ka (activation constant) (K403R) | Km (E123Q) [µM] | Km (D242H) [µM] | Km (E123G, R331K, L404H) [µM] | Km (R331K) [µM] | Km (L404E) [µM] | Km (L404K) [µM] | Km (R331P) [µM] | Km (K403L) [µM] | Km [1] [µM]
1 | O=C(O)[C@H](O)COP(=O)(O)O [3-PGA, 3-phosphoglycerate (3-phosphoglyceric acid)] | 0.22 ± 0.057 | – | – | – | – | – | – | – | – | –
2 | Nc1ncnc2c1ncn2[C@@H]1O[C@H](COP(=O)(O)OP(=O)(O)OP(=O)(O)O)[C@@H](O)[C@H]1O [ATP, adenosine 5'-triphosphate] | – | 52 ± 6 | 110 ± 16 | 67 ± 10 | 88 ± 13 | 135 ± 47 | 43 ± 9 | 97 ± 15 | 82 ± 17 | 91 ± 8
